Results on one molecule are retold here after patent US9474730B2, “Methods and compositions for use with K-ras mediated disorders” (Board of Regents of the University of Texas System, priority 2012, dated 2016).

Assay [1] addresses T1, mGFP-tagged K-rasG12V in BHK cells (Homo sapiens, UniProt P01116, G12V).
T1 construct: BHK cells expressing GFP-tagged full length constitutively active Ras (G12V) proteins; expressed in transfected cells
Kind of assay: Immuno-electron microscopy and spatial analysis of plasma membrane sheets, K-rasG12V. The settings on record: 6 μg/mL, 48 h. It counts as cell-based, hamster. As to the method:
(§1) FIG. 4: Illustrates that fendiline HCl alters plasma membrane association and nanoclustering of K-ras: Plasma membrane sheets were generated from cells expressing GFP-K-rasG12V or GFP-H-rasG12V. Cells were treated with vehicle or fendiline HCl (6 μg/mL) for 48 h. Plasma membrane sheets were labeled with anti-GFP antibody conjugated to 4.5 nm gold. The plasma membrane sheets were imaged in an electron microscope and the spatial distribution of the gold labeling was analyzed using Ripley's K-function. Maximum L(r)-r values above the 99% confidence interval (C.I.) for complete spatial randomness (CSR) indicate clustering at that value of r. […] Significant differences from the control pattern for fendiline treated cells were assessed using bootstrap tests, wherein experimentation was performed in accordance with principles described herein;
(§2) Immuno-EM and spatial analysis were conducted exactly as described previously (Hancock, J. F., and Prior, I. A. (2005). Electron microscopic imaging of Ras signaling domains. Methods 37, 165-172; Prior, I. A., Muncke, C., Parton, R. G., and Hancock, J. F. (2003). Direct visualization of Ras proteins in spatially distinct cell surface microdomains. J Cell Biol 160, 165-170). […] Intact 1-μm^2 areas of the plasma membrane sheet were identified using ImageJ, and the x-y coordinates of the gold particles were determined. […]

The target in assay [2] is T2, GFP-K-rasG12V in MDCK or BHK cells (Homo sapiens, UniProt P01116, G12V).
T2 construct: MDCK and BHK cells expressing GFP-tagged full length constitutively active Ras (G12V) proteins; expressed in transfected cells
In words: Cellular fractionation (P100/S100) with quantitative Western blotting, GFP-K-rasG12V. Format: cell-based, canine (MDCK), hamster (BHK). The settings on record: 4 μg/mL for MDCK and 6 μg/mL for BHK, 48 hours, vs vehicle. The protocol: Following treatment, membrane (P100) and soluble (S100) protein fractions were prepared and analyzed by quantitative Western blotting.
Preparation of whole-cell lysates: cells were lysed in Buffer B (50 mM Tris [pH 7.5], 75 mM NaCl, 25 mM NaF, 5 mM MgCl2, 5 mM EGTA, 1 mM dithiothreitol, 100 μM NaVO4, 1% Nonidet P-40 plus protease inhibitors). Cellular fractionation: cells were incubated in Buffer A (10 mm Tris-HCl, pH 7.5, 25 mm NaF, 5 mm MgCl2, 1 mm EGTA, 1 mm dithiothreitol, 100 μm NaVO4 plus protease inhibitors) for 30 minutes on ice and lysed by passing through a 27 G needle 30 times. The post nuclear supernatant was centrifuged at 100,000 g for 30 minutes and the membrane pellet was resuspended in Buffer A containing 1% Triton X-100.
SDS-PAGE and Western blotting with the specified antibody were performed using 20 μg of each whole cell lysate/P100 fraction and volumes of S100 equal to that of the corresponding P100. Signal was detected by enhanced chemiluminescence (SuperSignal; Pierce, Thermo Fisher Scientific, Rockford, Ill.) and imaged by FluorChemQ (Alpha Inotech, San Leandro, Calif., USA). Quantification of intensities was performed using FluorChemQ software.

The target of assay [3] is T3, mGFP-tagged H-rasG12V in BHK cells (Homo sapiens, UniProt P01112, G12V).
T3 construct: BHK cells expressing GFP-tagged full length constitutively active Ras (G12V) proteins; expressed in transfected cells
In words: Immuno-electron microscopy and spatial analysis of plasma membrane sheets, H-rasG12V. Format: cell-based, hamster. The settings on record: 6 μg/mL, 48 h. The protocol: as §1, §2

Counter-ions that a name gives are not always drawn.

For `CC(NCCC(c1ccccc1)c1ccccc1)c1ccccc1` (centres unmarked) [fendiline HCl], in assay [1], the “clustering of K-rasG12V on plasma membrane” value was “reduced clustering of both K- and H-rasG12V proteins”; the “plasma membrane associated K-rasG12V (EM gold labeling)” value is recorded as “reduces the plasma membrane associated K-rasG12V”. In addition, in assay [2], the “soluble fraction of GFP-K-rasG12V” value was “increases the soluble fraction of GFP-K-rasG12V”. In assay [3], the “clustering of H-rasG12V on plasma membrane” value was “reduced clustering of both K- and H-rasG12V proteins”; the “membrane association of H-rasG12V (EM gold labeling)” value is on record as “slightly increases membrane association of H-rasG12V”.
